Measurements published in patent US7034028B2, “Treatment of inflammatory disorders” (Arakis Ltd., priority 2000, dated 2006).
pIC50: −log10 of the molar value. Like-named read-outs stand apart in the source and are kept apart here.

Experiments:
[1] = tested on: IL-2; assay: Cytokine inhibition profile: IL-2; type: cell-based; settings: read-out: Inhibition Profile (IC50) IL-2
[2] = tested on: IL-1; assay: Cytokine inhibition profile: IL-1; type: cell-based; settings: read-out: Inhibition Profile (IC50) IL-1
[3] = tested on: TNF; assay: Cytokine inhibition profile: TNF; type: cell-based; settings: read-out: Inhibition Profile (IC50) TNF
[4] = tested on: IL-6; assay: Cytokine inhibition profile: IL-6; type: cell-based; settings: read-out: Inhibition Profile (IC50) IL-6
[5] = tested on: IFN gamma; assay: Cytokine inhibition profile: IFN gamma; type: cell-based; settings: read-out: Inhibition Profile (IC50) IFN gamma
[6] = tested on: T-cell proliferation; assay: T-cell (lymphocyte) proliferation inhibition; type: cell-based, human
[7] = tested on: bovine nasal cartilage; assay: Ex vivo IL-2-stimulated bovine nasal cartilage destruction model; type: cell-based; design: Inhibition of IL-2-stimulated bovine nasal cartilage destruction: unit not given here; settings: for inhibition at 1 µM / inhibition at 10 µM / inhibition at 100 µM: Bos taurus, read-out: Inhibition of IL-2-stimulated bovine nasal cartilage destruction
[8] = tested on: Interleukin-8 (IL-8); assay: Cytokine inhibition profile: IL-8; type: cell-based
[9] = read-out: Inhibition Profile (IC50) T-cell proliferation

Inhibition Profile (IC50) IL-8 [8] | Compound | pIC50 [1] | pIC50 [2] | pIC50 [3] | pIC50 [4] | pIC50 [5] | pIC50 [6, 9] | Inhibition of IL-2-stimulated bovine nasal cartilage destruction ([7]; 1 μM) | Inhibition of IL-2-stimulated bovine nasal cartilage destruction ([7]; 10 μM) | Inhibition of IL-2-stimulated bovine nasal cartilage destruction ([7]; 100 μM) | pIC50 [8] | also measured
– | O[C@H](c1cc(C(F)(F)F)nc2c(C(F)(F)F)cccc12)[C@@H]1CCCCN1 [(+)Mefloquine, (+)-Erythro-mefloquine] | 4.77 | 4.17 | 4.62 | 4.28 | 4.77 | 4.96 | 32 | 44 | 71 | 4.39 | Suppression of human lymphocyte proliferation, in words [6]: suppresses
Inactive | CCN(CCO)CCCC(C)Nc1ccnc2cc(Cl)ccc12 (stereo not shown) [Hydroxychloroquine, hydroxychloroquine] | 4.03 | 4.68 | 4.49 | 4.05 | 4.03 | – | – | – | – | – | pIC50 ([6]; Homo sapiens, T-cell; read-out: Inhibition Profile (IC50) T-cell proliferation): 4.80; inhibition at 1 µM ([7]; 1 μM): 4%; inhibition at 10 µM ([7]; 10 μM): 3%; inhibition at 100 µM ([7]; 100 μM): 36%; Activity against Interleukin-8 (IL-8), in words [8]: inactive
– | OC(c1cc(C(F)(F)F)nc2c(C(F)(F)F)cccc12)C1CCCCN1 (racemic) [(+/−) Mefloquine, mefloquine] | – | – | – | – | – | – | – | 20 | – | – | –
– | OC(c1cc(C(F)(F)F)nc2c(C(F)(F)F)cccc12)C1CCCCN1 (single isomer, unassigned; (-)) [(−)Mefloquine] | 4.77 | 4.10 | 4.74 | 4.37 | 4.74 | 5.00 | 37 | 45 | 82 | 4.20 | –
Inactive | CCN(CC)CCCC(C)Nc1ccnc2cc(Cl)ccc12 (stereo not shown) [Chloroquine, chloroquine] | 4.18 | 5.20 | 4.68 | 4.09 | 4.20 | – | – | – | – | – | pIC50 ([6]; Homo sapiens, T-cell, read-out: Inhibition Profile (IC50) T-cell proliferation): 4.89; inhibition at 1 µM [7]: 3%; inhibition at 10 µM [7]: 6%; inhibition at 100 µM [7]: 35%
